# Measurements from US20200268720A1, “METHODS OF USE OF A CLASS IIA HDAC INHIBITOR” (GlaxoSmithKline LLC, priority 2016, published 2020).
# “Also recorded” adds a separate entry of the source.
# What was measured:
# [1] = system: MMTV-PyMT tumors; assay: Combination with PD-1 checkpoint blockade in MMTV-PyMT mice; type: in vivo, mouse; conditions: TMP195 50 mg/kg IP daily plus 250 μg anti-PD-1
# [2] = system: mouse MMTV-PyMT breast tumor cell lines; assay: In vitro cell death assay (CellTiter-Glo), mouse lines; type: cell-based; conditions: 0, 0.1, 1, 10 μM, 48 hours
# Procedure: (§1) The human breast cancer cell lines (BT20, MCF7, HCC202, T47D, MDA-MB-453 and MDA-MB-436) were obtained from ATCC. Prior to use, cell line authentication was performed by either STR profiling at Dana-Farber Cancer Institute or by Fluidigm based fingerprinting with a panel of SNPs at The Broad Institute. Cell lines were tested for mycoplasma with the MycoAlert PLUS Mycoplasma Detection Kit (Lonza LT07) according to manufacturer's instructions. Mouse breast tumor cell lines were established from 4 different MMTV-PyMT tumor bear mice. Mouse breast tumor cell line 7333 was implanted into wild-type littermates and once the tumor formed it was removed and used to generate the tumor cell line “MMTV”. All cells were plated at 1E4 cells/well in a 96 well plate. Cells were treated for 48 hours and CellTiter-Glo was used to assess cell viability.
# [3] = system: human breast cancer cell lines (BT20, MCF7, HCC202, T47D, MDA-MB-453 and MDA-MB-436); assay: In vitro cell death assay (CellTiter-Glo), human lines; type: cell-based; conditions: 0, 0.1, 1, 10 μM, 48 hours
# Procedure: as §1
# [4] = system: Human monocytes; assay: In vitro antigen presenting cell (APC) and T cell proliferation experiments; type: cell-based
# From the text: Blood was collected from healthy donors according to the guidelines of the American Association of Blood Banks and under an IRB-approved informed consent form was purchased from Research Blood Components (Boston, Mass.). Human monocytes were isolated from buffy coat preparations via positive selection as per the manufacturer's instructions (StemCell Technologies, Catalog #18058). Monocytes were differentiated into antigen presenting cells in RPMI Medium 1640 supplemented with GLUTAMAX™ (GIBCO), fetal bovine serum (10% v/v), IL-4 (10 ng/ml), GM-CSF (50 ng/ml), penicillin (100 U/ml), and streptomycin (100 ug/ml) for 5 days in the presence of either 0.1% (v/v) DMSO or 300 nM TMP195. Cells were collected by washing and incubation with a solution of 5 mM EDTA in PBS (Ca2^+ and Mg2^+-free), prior to flow cytometric analysis of CD80 (Biolegend #305208) and CD86 (Biolegend #305418). Alternatively, harvested APCs were counted and co-cultured in culture medium (no DMSO or inhibitor present) with heterologous CD4^+ T cells (isolated from buffy coats via negative selection following manufacturer's instructions, StemCell Technologies, Catalog #15062) that had been labeled with CELLTRACE™ CFSE (ThermoFisher catalog #C34554) at a 10:1 T cell:APC ratio. T cell proliferation was stimulated by the addition of 200 pg/ml anti-CD3 (Biolegend Catalog #317326), and proliferation was quantified after 72 hours of co-culture by the dilution of CFSE using FlowJo software (version 9.4, Treestar, Inc.).
# [5] = system: tumor vasculature; assay: Tumor vasculature (CD34 IHC, heavy dextran leaky vasculature experiment); type: in vivo, mouse
# Procedure: Tumor bearing mice that had been treated for 5 days with vehicle or TMP195 were injected with a heavy molecular weight (250 kDa; Sigma-Aldrich FD250S) dextran labeled with FITC36. After 10 minutes, mice were sacrificed. […] Tumors were removed and placed in a 4% PBS/Paraformaldehyde solution overnight, then embedded in a 20% sucrose solution overnight. Tumors were embedded in an optimum cutting temperature (OCT) solution and stored at −80° C. prior to sectioning and staining. The extent of the heavy dextran that permeated through the vasculature was visualized by immunofluorescence.
# [6] = system: CD11b+ bone marrow derived CFSE-labeled monocytes; assay: Monocyte tracking experiment; type: in vivo, mouse; conditions: TMP195 treatment of recipient mice vs DMSO
# Procedure: Monocyte tracking was adapted and modified from Qian et al.^35 Bone marrow cells were isolated from approximately 80 day old wild-type FVB/N virgin females. CD11b+ cells were isolated with CD11b MicroBeads (Miltenyi Biotec 130-049-601) using LS magnetic separation columns (Miltenyi Biotec 130-042-401) per manufacturer's instruction. CD11b^+ cells were incubated with 10 μM of CFSE (ThermoFisher C34554) for 15 minutes at 37° C. […] Mice were treated for an additional 5 days and tumors were harvested. The percent of CD11b^+ CFSE^+ double positive cells was assessed by flow cytometry.
# [7] = system: MMTV-PyMT tumor transplants; assay: Orthotopic transplant of MMTV-PyMT tumor pieces into wild-type FVBN or athymic nude Foxn1nu mice; type: in vivo, mouse
# Procedure: Two transplant experiments were performed where tumors were extracted from MMTV-PyMT mice and 50-100 mm^3 pieces were inserted into the 4th mammary fat pad of either wild-type FVBN mice or athymic nude Foxn1nu mice. Five days after implant mice were randomly placed into treatment groups and treated as indicated.
# [8] = system: MMTV-PyMT tumors; assay: Tumor cell proliferation and apoptosis (Ki67, cleaved Caspase 3 IHC, immunoblot); type: in vivo, mouse; conditions: 5 days of TMP195
# Procedure: Tumors were manually dissociated using a blade before being lysed in complete RIPA lysis buffer for 2 hours at 4° C. Complete RIPA is a combination of RIPA lysis buffer, a protease inhibitor, and Phenylmethylsulfonyl fluoride (PMSF). After incubation in RIPA, the lysates were centrifuged at 10,000 rcf for 10 minutes and the supernatant was collected for analysis. Protein concentration was measured using a Bicinchoninic acid (BCA) assay as per manufacturer's instructions. Equal protein concentrations were mixed into NuPAGE LDS sample buffer, beta mercaptoethanol (BME), and complete RIPA buffer before being heated for 10 mins at 90° C. to denature the protein. The gels were run on 15 wells 4-12% Bis-Tris Protein gels for 2 hours at 110 volts before being transferred onto a PVDF membrane. The blots were blocked in a 5% milk and PBST solution, and placed in primary antibody overnight. Blots were then incubated in secondary antibody for 1 hour before being developed with supersignal west PICO chemiluminescence substrate and FEMTO supersignal maximal sensitivity substrate. A Luminescent Image Analyzer LAS-4000 was used to develop blots. Primary antibodies purchased from Cell Signaling Technology were used: cleaved caspase 3 (D175), PARP (9542S) and Actin. Antibodies were diluted to a 1:1000 solution in 1% BSA, and sodium azide diluted to 1:500. […]
# [9] = IL-4 and GM-CSF, 5 days, 300 nM TMP195 vs 0.1% DMSO
structure (smiles),measurement,setting,value
"CC(C)(CNC(=O)c1cccc(-c2noc(C(F)(F)F)n2)c1)c1coc(-c2ccccc2)n1 [TMP195, N-(2-methyl-2-(2-phenyloxazol-4-yl)propyl)-3-(5-(trifluoromethyl)-1,2,4-oxadiazol-3-yl)benzamide]","tumor burden, TMP195 added to the anti-PD-1 regimen",[1],significantly greater reduction in tumor burden than TMP195 alone
same,"cell viability, 6 mouse MMTV-PyMT cell lines",[2],not directly cytotoxic; also recorded: does not affect cell viability
same,"cell viability, 6 human breast cancer cell lines",[3],not directly cytotoxic; also recorded: does not affect cell viability
same,T cell co-stimulatory function of monocytes differentiated to antigen presenting cells,[4]; [9],promoted T cell co-stimulatory function
same,proportion of cells expressing the co-stimulatory molecule CD86,[4]; [9],increase
same,proliferation (Division Index) of CFSE-labeled naive CD4+ T cells co-cultured with differentiated monocytes,"[4]; monocytes differentiated in 300 nM TMP195 vs DMSO, 10:1 T cell:APC",higher degree of proliferation
same,tumor vasculature organization (CD34+ vessel structure),[5]; 5 days of TMP195 vs DMSO,more organized
same,integrity of the tumor vasculature (retention of IV heavy dextran),[5]; 5 days of TMP195 vs vehicle,significantly improved
same,proportion of IV injected CD11bhiCFSE+ monocytes recruited to tumors,[6],significant increase; also recorded: significantly enhanced
same,tumor burden in wild-type FVBN recipients,"[7]; treated daily for 16 days, 50 mg/kg TMP195 vs DMSO",tumor burden was reduced
same,transplant growth in T cell deficient athymic nude (Foxn1nu) recipient mice,[7]; treated for 20 days,failed to inhibit transplant growth
same,"cell death in the tumor (cleaved Caspase 3, PARP cleavage)",[8],increase in cell death
same,proliferating tumor cells (Ki67),[8],significant decrease
